Patent US20240279233A1, “MACROCYCLIC TAK1 INHIBITORS” (Aqilion AB, priority 2021, published 2024)
Values after ≈ are worked out from the molar mass of the structure shown. Like-named read-outs stand apart in the source and are kept apart here.

Legend:
[1] = molecular target: human recombinant TAK1-TAB1 Kinase (TAK1 (1-303) and TAB1 (437-end)) (Homo sapiens (Human), UniProt O43318); test: TAK1 biochemical ADP-Glo kinase assay; settings: MBP substrate
Summary of the method: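 Inhibition of human recombinant TAK1-TAB1 kinase was measured with a Promega ADP-Glo luminescence assay in 384-well plates. Compounds in 5% DMSO were pre-incubated 10 min with 2 μl TAK1-TAB1 (7.5 ng/μl) in buffer of Tris pH 7.5, MgCl2, DTT and BSA. MBP substrate and ATP were then added for 1 hour at room temperature. ADP-Glo reagent and kinase detection substrate followed, luminescence was read on an Envision, and IC50 came from non-linear regression.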

[2] = Solubility assay in phosphate buffer; settings: phosphate buffer 100 mM, pH 7.4, room temperature, 20-24 h, LC-UV
Method: The aqueous solubility of selected example compounds was determined as follows; 6 μL of DMSO stock solution of the selected example was added to 594 μL phosphate buffer (100 mM, pH 7.4). The resulting mixture was equilibrated over night (20-24 h, Alligator Shaker, room temperature). The mixture was then filtered (Millex LH 0.45 μm) and the concentration/solubility was determined by LC-UV quantification.

[3] = 10 μM ATP, read-out: TAK1 Mean IC50 (nM) @ 10 μM ATP
[4] = phosphate buffer, pH 7.4, aqueous buffer, kinetic from dmso stock, Solubility (μM)
[5] = 1 mM ATP, read-out: TAK1 Mean IC50 (nM) @ 1 mM ATP

Chain of human recombinant TAK1-TAB1 Kinase (TAK1 (1-303) and TAB1 (437-end)) (O43318 other isoform, or with tags, fused parts or gaps): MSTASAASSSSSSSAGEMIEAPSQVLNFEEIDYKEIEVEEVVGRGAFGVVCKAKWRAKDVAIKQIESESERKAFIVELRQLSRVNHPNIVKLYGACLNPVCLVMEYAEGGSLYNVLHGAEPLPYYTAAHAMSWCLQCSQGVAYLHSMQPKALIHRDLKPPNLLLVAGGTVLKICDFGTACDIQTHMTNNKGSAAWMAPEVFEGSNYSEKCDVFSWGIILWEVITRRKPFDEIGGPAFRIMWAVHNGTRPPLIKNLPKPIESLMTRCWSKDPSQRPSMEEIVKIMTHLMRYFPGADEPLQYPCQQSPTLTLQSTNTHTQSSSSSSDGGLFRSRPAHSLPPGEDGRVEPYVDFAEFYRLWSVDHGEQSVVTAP

| IC50 [1, 3] [nM] | solubility [2, 4] [µM] | IC50 [1, 5] [nM] | solubility [2] [µM] | Compound |
| --- | --- | --- | --- | --- |
| 8 | 86 (≈ 42.1 µg/mL) | – | – | CC1CCCCNC(=O)c2cccc(c2)C(=O)/N=C2\Nc3cccc(C(=O)N4CCOC[C@@H]4C)c3N21 (single isomer, unassigned) [Example 78] |
| 4 | 33 (≈ 14.6 µg/mL) | 9 | – | C[C@H]1CCCCNC(=O)c2cccc(c2)C(=O)Nc2nc3cccc(-c4ncnn4C)c3n21 [Example 86, (S,E)-11-methyl-1^7-(1-methyl-1H-1,2,4-triazol-5-yl)-1^1H-2,6-diaza-1(2,1)-benzo[d]imidazola-4(1,3)-benzenacycloundecaphane-3,5-dione] |
| 3 | 44 (≈ 19.3 µg/mL) | – | – | [2H]C([2H])([2H])N(C(=O)c1cccc2c1N1/C(=N/C(=O)c3cccc(c3)C(=O)NCCCC[C@H]1C)N2)C([2H])([2H])[2H] [Example 64, (R,E)-11-methyl-N,N-bis(methyl-d3)-3,5-dioxo-1^2,1^3-dihydro-1^1H-2,6-diaza-1(2,1)-benzo[d]imidazola-4(1,3)-benzenacycloundecaphane-1^7-carboxamide] |
| 6 | 88 (≈ 42 µg/mL) | – | – | CC1CCCCNC(=O)c2cccc(c2)C(=O)/N=C2\Nc3cccc(C(=O)N4CC[C@H](F)C4)c3N21 (single isomer, unassigned) [Example 89] |
| 11 | 0.3 (≈ 0.168 µg/mL) | – | – | CC(C)(C)OC(=O)N1CCN(C(=O)c2cccc3nc4n(c23)CCCCCNC(=O)c2cccc(c2)C(=O)N4)CC1 [Example 14, tert-butyl 4-(3,5-dioxo-1^1H-2,6-diaza-1(2,1)-benzo[d]imidazola-4(1,3)-benzenacycloundecaphane-1^7-carbonyl)piperazine-1-carboxylate] |
| 8 | 95 (≈ 47.6 µg/mL) | – | – | C[C@H]1CCCCNC(=O)c2cccc(c2)C(=O)/N=C2\Nc3cccc(C(=O)N4C[C@H]5C[C@@H]4CN5C)c3N21 [Example 30, (S, E)-11-methyl-1^7-((1R,4R)-5-methyl-2,5-diazabicyclo[2.2.1]heptane-2-carbonyl)-1^2,1^3-dihydro-1^1H-2,6-diaza-1(2,1)-benzo[d]imidazola-4(1,3)-benzenacycloundecaphane-3,5-dione] |
| 3 | – | – | 80.0 (≈ 39.2 µg/mL) | COC1(C)CN(C(=O)c2cccc3c2N2/C(=N/C(=O)c4cccc(c4)C(=O)NCCCCC2C)N3)C1 (stereo not shown) [Example 50, (E)-1^7-(3-methoxy-3-methylazetidine-1-carbonyl)-11-methyl-1^2,1^3-dihydro-1^1H-2,6-diaza-1(2,1)-benzo[d]imidazola-4(1,3)-benzenacycloundecaphane-3,5-dione] |
| 5 | 92.7 (≈ 45.3 µg/mL) | – | – | CC1CCCCNC(=O)c2cccc(c2)C(=O)Nc2nc3cccc(C(=O)N4CCN(C)CC4)c3n21 (stereo not shown) [Example 8, 11-methyl-1^7-(4-methylpiperazine-1-carbonyl)-1^1H-2,6-diaza-1(2,1)-benzo[d]imidazola-4(1,3)-benzenacycloundecaphane-3,5-dione] |
| 19 | 35 (≈ 17.1 µg/mL) | – | – | C[C@@H]1CN(C)CCN1C(=O)c1cccc2c1N1CCCCCNC(=O)c3cccc(c3)C(=O)/N=C/1N2 [Example 20, (R,E)-1^7-(2,4-dimethylpiperazine-1-carbonyl)-1^2,1^3-dihydro-1^1H-2,6-diaza-1(2,1)-benzo[d]imidazola-4(1,3)-benzenacycloundecaphane-3,5-dione] |
| 4 | 16 (≈ 7.13 µg/mL) | – | – | CC1CCCCNC(=O)c2cccc(c2)C(=O)/N=C2\Nc3cccc(C(=O)N4CCC4)c3N21 (stereo not shown) [Example 43, (E)-1^7-(azetidine-1-carbonyl)-11-methyl-1^2,1^3-dihydro-1^1H-2,6-diaza-1(2,1)-benzo[d]imidazola-4(1,3)-benzenacycloundecaphane-3,5-dione] |
| 8 | 9 (≈ 4.21 µg/mL) | 25 | – | C[C@H]1CCCCNC(=O)c2cccc(c2)C(=O)Nc2nc3ccc(Cl)c(C(=O)N(C)C)c3n21 (single isomer, unassigned) [Example 54] |
| 8 | 83.3 (≈ 40.7 µg/mL) | – | – | CN(C)[C@@H]1CCN(C(=O)c2cccc3c2N2CCCCCNC(=O)c4cccc(c4)C(=O)/N=C/2N3)C1 [Example 23, (R,E)-1^7-(3-(dimethylamino)pyrrolidine-1-carbonyl)-1^2,1^3-dihydro-1^1H-2,6-diaza-1(2,1)-benzo[d]imidazola-4(1,3)-benzenacycloundecaphane-3,5-dione] |
| 9 | 88.5 (≈ 43.1 µg/mL) | – | – | CN1C[C@@H]2C[C@H]1CN2C(=O)c1cccc2c1N1CCCCCNC(=O)c3cccc(c3)C(=O)/N=C/1N2 [Example 22, (E)-1^7-((1S,4S)-5-methyl-2,5-diazabicyclo[2.2.1]heptane-2-carbonyl)-1^2,1^3-dihydro-1^1H-2,6-diaza-1(2,1)-benzo[d]imidazola-4(1,3)-benzenacycloundecaphane-3,5-dione] |
| 3 | 95 (≈ 41.2 µg/mL) | 14 | – | CC1CCCCNC(=O)c2cccc(c2)C(=O)Nc2nc3cccc(C(=O)N(C)C)c3n21 (single isomer, unassigned) [Example 32, (E)-N,N,11-trimethyl-3,5-dioxo-1^2,1^3-dihydro-1^1H-2,6-diaza-1(2,1)-benzo[d]imidazola-4(1,3)-benzenacycloundecaphane-1^7-carboxamide] |
| 1 | 31.1 (≈ 16.1 µg/mL) | – | – | O=C1NCCCCCn2c(nc3cc(C(=O)N4CCN(C5COC5)CC4)ccc32)NC(=O)c2cccc1c2 [Example 12, 1^5-(4-(oxetan-3-yl)piperazine-1-carbonyl)-1^1H-2,6-diaza-1(2,1)-benzo[d]imidazola-4(1,3)-benzenacycloundecaphane-3,5-dione] |
| 5 | 90 (≈ 41.9 µg/mL) | 6 | – | CC1CCCCNC(=O)c2cccc(c2)C(=O)/N=C2\Nc3cccc(C(=O)N(C)CCF)c3N21 (single isomer, unassigned) [Example 70, (E)-N-(2-fluoroethyl)-N,11-dimethyl-3,5-dioxo-1^2,1^3-dihydro-1^1H-2,6-diaza-1(2,1)-benzo[d]imidazola-4(1,3)-benzenacycloundecaphane-1^7-carboxamide] |
| 7 | 90 (≈ 41.4 µg/mL) | 11 | – | C[C@H]1CCCCNC(=O)c2cccc(c2)C(=O)/N=C2\Nc3cccc(N4CCN(C)C4=O)c3N21 [Example 74, (S,E)-11-methyl-1^7-(3-methyl-2-oxoimidazolidin-1-yl)-1^2,1^3-dihydro-1H-2,6-diaza-1(2,1)-benzo[d]imidazola-4(1,3)-benzenacycloundecaphane-3,5-dione] |
| 5 | 4.7 (≈ 2.43 µg/mL) | – | – | O=C1/N=C2\Nc3ccc(C(=O)N4CCN(C5COC5)CC4)cc3N2CCCCCNC(=O)c2cccc1c2 [Example 98, (E)-1^6-(4-(oxetan-3-yl)piperazine-1-carbonyl)-1^2,1^3-dihydro-1^1H-2,6-diaza-1(2,1)-benzo[d]imidazola-4(1,3)-benzenacycloundecaphane-3,5-dione] |
| 223 | 26 (≈ 11.3 µg/mL) | – | – | C[C@H]1CCCCn2c(nc3cccc(C(=O)N(C)C)c32)NC(=O)c2cccc(c2)C(=O)N1 [Example 44, (S,E)-N,N,7-trimethyl-3,5-dioxo-1^2,1^3-dihydro-1^1H-2,6-diaza-1(2,1)-benzo[d]imidazola-4(1,3)-benzenacycloundecaphane-1^7-carboxamide] |
| 4 | 11 (≈ 4.87 µg/mL) | – | – | CC1CCCCNC(=O)c2cccc(c2)C(=O)/N=C2\Nc3cccc(-c4nccn4C)c3N21 (single isomer, unassigned) [Example 136, (E)-11-methyl-1^7-(1-methyl-1H-imidazol-2-yl)-1^2,1^3-dihydro-1^1H-2,6-diaza-1(2,1)-benzo[d]imidazola-4(1,3)-benzenacycloundecaphane-3,5-dione] |
| 1 | 0.2 (≈ 0.112 µg/mL) | – | – | CC(C)(C)OC(=O)N1CCN(C(=O)c2ccc3c(c2)nc2n3CCCCCNC(=O)c3cccc(c3)C(=O)N2)CC1 [Example 13, tert-butyl 4-(3,5-dioxo-1^1H-2,6-diaza-1(2,1)-benzo[d]imidazola-4(1,3)-benzenacycloundecaphane-1^5-carbonyl)piperazine-1-carboxylate] |
| 5 | 90.1 (≈ 42.8 µg/mL) | – | – | CC1CCCCNC(=O)c2cccc(c2)C(=O)Nc2nc3cccc(C(=O)N4CCNCC4)c3n21 (stereo not shown) [Example 15, 11-methyl-1^7-(piperazine-1-carbonyl)-1^1H-2,6-diaza-1(2,1)-benzo[d]imidazola-4(1,3)-benzenacycloundecaphane-3,5-dione] |
| 1 | 4.8 (≈ 2.28 µg/mL) | – | – | CN1CCN(C(=O)c2ccc3c(c2)nc2n3CCCCCNC(=O)c3cccc(c3)C(=O)N2)CC1 [Example 11, 1^5-(4-methylpiperazine-1-carbonyl)-1^1H-2,6-diaza-1(2,1)-benzo[d]imidazola-4(1,3)-benzenacycloundecaphane-3,5-dione] |
| 5 | 78.7 (≈ 38.5 µg/mL) | – | – | CN1CCCN(C(=O)c2cccc3c2N2CCCCCNC(=O)c4cccc(c4)C(=O)/N=C/2N3)CC1 [Example 26, (E)-1^7-(4-methyl-1,4-diazepane-1-carbonyl)-1^2,1^3-dihydro-1^1H-2,6-diaza-1(2,1)-benzo[d]imidazola-4(1,3)-benzenacycloundecaphane-3,5-dione] |
| 7 | 8.5 (≈ 4.39 µg/mL) | – | – | O=C1/N=C2\Nc3cccc(C(=O)N4CCN(C5COC5)CC4)c3N2CCCCCNC(=O)c2cccc1c2 [Example 19, (E)-1^7-(4-(oxetan-3-yl)piperazine-1-carbonyl)-1^2,1^3-dihydro-1^1H-2,6-diaza-1(2,1)-benzo[d]imidazola-4(1,3)-benzenacycloundecaphane-3,5-dione] |
